Data reported in US20220211687A1, “USE OF ARIMOCLOMOL IN THE TREATMENT OF NIEMANN PICK DISEASE” (Orphazyme A/S, priority 2020, published 2022).

Columns and labels:
[1] = system: Niemann-Pick disease type C (NPC); assay: Nine-hole peg test (9-HPT), phase 2/3 trial; type: in vivo, human; conditions: for 9-HPT time, change from baseline to 12 months, LS mean: arimoclomol group
Description: 9-HPT: The 9-HPT is a direct and simple measurement of fine motor coordination, hand/eye coordination, and the ability to follow a simple direction, measured in seconds for each hand. The test is not applicable for children under 4 years of age. See Poole J L, Burtner PA, Torres TA, et al. Measuring dexterity in children using the Nine-hole Peg Test. J Hand Ther. 2005; 18:348-51.

[2] = evidenced by presence in cerebrospinal fluid of treated ALS patients; cited from earlier work
[3] = system: Niemann-Pick disease type C (NPC)
[4] = Safety in open-label extension (OLE) of phase 2/3 trial
Description: All OLE patients received arimoclomol; routine clinical care, including miglustat, was maintained.

[5] = system: Niemann-Pick disease type C (NPC); assay: Clinical Global Impression-Improvement scale (CGI-I) responder analysis, phase 2/3 trial; type: in vivo, human
Experimental: (§1) During the 12-month treatment phase, efficacy assessments for the primary endpoint, the 5-domain NPCCSS score, and for the non-disease specific Clinical Global Impression—Improvement scale (CGI-I) scores were performed at baseline and after 3, 6, 9, and 12 months of treatment; all other efficacy and biomarker assessments were performed at baseline and after 6 and 12 months of treatment.
CGI-I: the CGI-I was originally developed as a research rating tool to assess psychiatric diseases (see Busner J, Targum SD. The clinical global impressions scale: applying a research tool in clinical practice. Psychiatry (Edgmont). 2007;4:28-37, incorporated herein by reference in its entirety). It provides the clinician's impression of improvement (or worsening) of a person's condition at the current visit compared with baseline on a 7-point scale ranging from 1 (very much improved) to 7 (very much worse). In the present trial, CGI-I was performed after clinical examination and patient interviews; the same investigator was instructed to perform CGI-I assessments throughout the trial for a given patient.

[6] = system: Niemann-Pick disease type C (NPC); assay: 5-domain NPCCSS score, open-label extension (OLE) of phase 2/3 trial; type: in vivo, human
[7] = system: Niemann-Pick disease type C (NPC); assay: 5-domain NPCCSS score, 12-month double-blind placebo-controlled phase 2/3 trial; type: in vivo, human; conditions: for Responders on 5-domain NPCCSS score at 12 months, %: responder = stable or improved
Experimental: Patients enrolled in the trial were stratified by use of miglustat at baseline. Patients in both strata were randomized 2:1 to receive arimoclomol or placebo.
(§2) Routine clinical care was maintained throughout the trial (including administration of miglustat). Each participant was randomized to receive arimoclomol or placebo three times daily. Arimoclomol was administered orally or by feeding tube at 93-372 mg/day based on the patient's body weight up to the estimated equivalence of 372 mg/day for adults (body weight >55 kg) or of 124 mg three times a day.
as §1
Primary endpoint: The primary endpoint was change from baseline in NPC severity at 12 months as assessed by the 5-domain NPCCSS score, an abbreviated assessment tool originating from the 17 domain NPCCSS score developed by Yanjanin et al., as described herein. The fully validated 5-domain NPCCSS score comprises the domains determined to be most clinically relevant to patients, caregivers, and clinicians: ambulation, cognition, fine motor skills, speech, and swallowing. The total aggregated 5-domain NPCCSS score ranges from 0 to 25, with a higher score indicating more severe clinical impairment.
Subgroup analyses of primary endpoint: NPC is a heterogeneous disease, and patients aged 2 to 18 years present with a large spectrum of disease presentations. The group of children <4 years old includes patients with mild manifestations and patients with aggressive, early fatal disease. As this group is particularly heterogeneous, a subgroup of patients >4 years of age was predefined with the population of study participants.
In the EU, miglustat is indicated for the treatment of progressive neurological manifestations in patients with NPC. However, not all patients are candidates for miglustat treatment, and it is recommended that the benefit of treatment should be evaluated on a regular basis (e.g., every six months). An analysis of the subpopulation of patients receiving miglustat was prespecified to elucidate the effect of arimoclomol in patients on background miglustat treatment. Overall, the subgroups of patients ≥4 years of age, and patients on miglustat treatment, were expected to be more homogeneous with respect to baseline demographics and disease characteristics and therefore more suitable for comparison.
In the first post hoc analysis, subjects with double functional null mutations in NPC1 (NPC1 genotype of Functional Null/Functional Null) were excluded.

[8] = system: Niemann-Pick disease type C (NPC); assay: NPC clinical database (NPC-cdb) score, phase 2/3 trial; type: in vivo, human; conditions: for NPC-cdb score change from baseline to 12 months, Arimoclomol vs placebo: Difference: p=0.3785
Description: Additional secondary endpoints included: change from baseline in scale for assessment and rating of ataxia (SARA) score at 6 and 12 months; change in the nine-hole peg test (9-HPT) result at 6 and 12 months; change in health-related quality of life (HRQoL) as measured by the 5-dimension 3-level EuroQol questionnaire, youth version (EQ-5D-3L Y proxy) at 6 and 12 months; change in individual 5-domain NPCCSS score at month 12; and NPC clinical database (NPC-cdb) score changes from baseline at trial time points. The NPC-cdb score aims to reflect clinical status; an increase in score indicates a reduction in the patient's abilities.

[9] = system: Niemann-Pick disease type C (NPC); assay: EQ-5D-3L Y proxy health-related quality of life, phase 2/3 trial; type: in vivo, human
Experimental: EQ-5D-3L Y proxy: The HRQoL of individuals in the trial was measured using the child-friendly version of the EQ-5D-3L Y proxy questionnaire. The questionnaire was completed by the patient's caregiver as a proxy for the individual.

[10] = system: Niemann-Pick disease type C (NPC); assay: 17-domain (full) NPCCSS score excluding hearing domains, phase 2/3 trial; type: in vivo, human; conditions: for Full NPCCSS score (excluding hearing domains), LS mean change from baseline, Arimoclomol vs placebo: Difference: p=0.5726
Description: As would be appreciated by the skilled artisan, progression of NPC in a subject can be tracked by a clinician using the NPC composite clinical severity scale (hereafter “NPCCSS”; see Yanjanin NM et al. Am J Med Genet B Neuropsychiatr Genet, 2010; 153B (1): 132-140, incorporated herein by reference in its entirety). A full “17-domain NPCCSS score” incorporates clinical signs and symptoms in nine major (ambulation, cognition, eye movement, fine motor, hearing, memory, seizures, speech, swallowing) and eight minor (auditory brainstem response, behavior, gelastic cataplexy, hyperreflexia, incontinence, narcolepsy, psychiatric, respiratory problems) domains to determine a score which describes the severity of the subject's NPC progression (a higher score, the more progressed/severe the disease is). An abridged “5-domain NPCCSS score” is also used by clinicians, and incorporates clinical signs and symptoms from the major domains of ambulation, cognition, fine motor, speech and swallowing (see Cortina-Borj a M et al. OrphanetJRare Dis, 2018; 13 (1): 143; 3, incorporated herein by reference in its entirety).
as §2

[11] = Safety evaluation (TEAEs), 12-month double-blind phase 2/3 trial; type: in vivo, human
Experimental: as §2

[12] = system: Niemann—Pick disease type C (NPC); conditions: background statement; cited from earlier work

[O-][n+]1cccc(/C(Cl)=N/OC[C@H](O)CN2CCCCC2)c1 [Arimoclomol, N-[(2R)-2-hydroxy-3-piperidin-1-ylpropoxy]-1-oxidopyridin-1-ium-3-carboximidoyl chloride]
9-HPT time, change from baseline to 12 months, LS mean ([1]; Dominant hand): -3.29 s | 9-HPT time, change from baseline to 12 months, Arimoclomol vs placebo: Difference ([1]; Dominant hand, p=0.7283): 3.20 s | 9-HPT time, change from baseline to 12 months, LS mean ([1]; Non-dominant hand): 11.68 s | 9-HPT time, change from baseline to 12 months, Arimoclomol vs placebo: Difference ([1]; Non-dominant hand, p=0.7708): -5.91 s | Blood-brain barrier penetration [2]: crosses the blood—brain barrier | SARA score change from baseline to 12 months, LS mean ([3]; arimoclomol group): 1.06 | SARA score change from baseline to 12 months, Arimoclomol vs placebo: Difference ([3]; p=0.7899): 0.28 | Adverse events incidence ([4]; M12-24): 87.8% | Adverse events incidence ([4]; M24-36): 85.3% | Safety and tolerability ([4]; over 24 months): safe and well-tolerated | Tolerability ([4]; over 36 months): well tolerated | Responders on CGI-I at 12 months, Arimoclomol vs placebo: Difference ([5]; p=1.0000): 2.6% | Responders on CGI-I at 12 months, % ([5]; responder = stable or improved, arimoclomol group): (58.8) % | Benefit over a two-year period ([6]; 12-month OLE after 12-month double-blind part): sustained benefit | Treatment effect over 36 months ([6]; OLE, 36 months): sustained treatment effect | 5D-NPCCSS mean (SD) change from baseline at M36 ([6]; arimoclomol-arimoclomol group, 3 years' arimoclomol treatment (DB and OLE)): 3.5 (5.6) | Progression in OLE compared to placebo-controlled part ([6]; patients who received arimoclomol for a total of two years, mainly due to patients under 4 years): greater progression | 5-domain NPCCSS progression ([6]; patients who switched from placebo to arimoclomol, 12-month open label extension): 0.23 | 5D-NPCCSS mean (SD) change from baseline at M36 ([6]; placebo-arimoclomol group, 2 years' arimoclomol treatment (OLE only)): 0.9 (2.1) | Early treatment initiation versus delayed start of treatment ([6]; predefined subgroups: patients 4 years and older, patients receiving miglustat): greater benefit than delayed start of treatment | Benefit of sustained treatment across subgroups at M36 ([6]; subgroups: aged >4 years, treated with miglustat, without double functional null mutations): consistent benefit | Change in 5-domain NPCCSS score from baseline at 12 months, mean change ([7]; individuals aged ≥4 years, arimoclomol group n=30 (24 at 12 months)): 0.44 | Change in 5-domain NPCCSS score from baseline at 12 months, Arimoclomol vs placebo: Difference ([7]; individuals aged ≥4 years, p=0.0190): −1.75 | Relative reduction in annual disease progression ([7]; individuals aged ≥4 years, vs placebo): 80% | Change in 5-domain NPCCSS score from baseline at 12 months, mean change ([7]; individuals not receiving miglustat, arimoclomol group n=8 (3 at 12 months)): 4.2 | Change in 5-domain NPCCSS score from baseline at 12 months, Arimoclomol vs placebo: Difference ([7]; individuals not receiving miglustat, p=0.2835): 2.21 | Change in 5-domain NPCCSS score from baseline at 12 months, mean change ([7]; individuals receiving miglustat, arimoclomol group n=26 (22 at 12 months)): −0.01 | Change in 5-domain NPCCSS score from baseline at 12 months, Arimoclomol vs placebo: Difference ([7]; individuals receiving miglustat, p=0.0074): −2.01 | Relative reduction in annual disease progression ([7]; individuals receiving miglustat, vs placebo): 101% | Relative reduction in annual disease progression ([7]; overall population, 5-domain NPCCSS, vs placebo): 63% | Change in 5-domain NPCCSS score from baseline at 12 months, mean change ([7]; overall population, arimoclomol group n=34 (27 at 12 months), 93-372 mg/day by body weight, three times daily): 0.80 | Change in 5-domain NPCCSS score from baseline at 12 months, Arimoclomol vs placebo: Difference ([7]; overall population, p=0.0537): −1.34 | Responders on 5-domain NPCCSS score at 12 months, Arimoclomol vs placebo: Difference ([7]; p=0.5456): 12.5% | Proportion worsening on 5-domain NPCCSS score at 12 months, Arimoclomol vs placebo: Difference ([7]; p=1.0000): 0.37% | Progression of NPC in prespecified subgroups (MMRM on 5-domain NPCCSS) ([7]; patients >4 years old (n=44) and patients concomitantly receiving miglustat (n=39), p<0.05): slowed progression of NPC | Relative reduction in annual disease progression ([7]; post hoc, baseline ASIS within 0.5 and 2): 93% | Change in 5-domain NPCCSS score, Arimoclomol vs placebo: Difference ([7]; post hoc, baseline ASIS within 0.5 and 2 (n=21), p=0.0536): −2.39 | Change in 5-domain NPCCSS score from baseline at 12 months, mean change ([7]; post hoc, baseline ASIS within 0.5 and 2, arimoclomol n=13): 0.19 | Relative reduction in annual disease progression ([7]; post hoc, excluding individuals with double functional null mutations): 77% | Change in 5-domain NPCCSS score from baseline at 12 months, mean change ([7]; post hoc, excluding individuals with double functional null mutations, arimoclomol n=31): 0.47 | Change in 5-domain NPCCSS score, Arimoclomol vs placebo: Difference ([7]; post hoc, excluding individuals with double functional null mutations, p=0.0242): −1.56 | Responders on 5-domain NPCCSS score at 12 months, % ([7]; arimoclomol group n=34): (50.0) % | Responders on 5-domain NPCCSS score at 12 months, % ([7]; arimoclomol group n=34, listed as arimoclomol): 50.0% | Time to worsening on 5-domain NPCCSS score ([7]; time until worsened by 2 points vs baseline, arimoclomol group): 3.68 months | Proportion worsening on 5-domain NPCCSS score at 12 months, % ([7]; worsening by 2 points vs baseline, arimoclomol group n=34): (44.1) % | NPC-cdb score change from baseline to 12 months, LS mean ([8]; arimoclomol group): 1.85 | NPC-cdb score change from baseline to 12 months, Arimoclomol vs placebo: Difference [8]: −3.03 | NPC-cdb score change from baseline to 12 months, Arimoclomol vs placebo: Difference ([8]; listed as arimoclomol): numerically in favor of arimoclomol | EQ-5D-3L Y proxy, Improved at 12 months, % ([9]; arimoclomol group): (25.9) % | EQ-5D-3L Y proxy, Worsened at 12 months, % ([9]; arimoclomol group): (44.4) % | EQ-5D-3L Y proxy, Worsened at 12 months, Arimoclomol vs placebo: Difference ([9]; p=0.1804): 24.4% | EQ-5D-3L Y proxy, Improved at 12 months, Arimoclomol vs placebo: Difference ([9]; p=0.4880): −14.1% | Full NPCCSS score (excluding hearing domains), LS mean change from baseline ([10]; 12 months, arimoclomol group): 1.24 | Full NPCCSS score (excluding hearing domains), LS mean change from baseline, Arimoclomol vs placebo: Difference ([10]; 12 months): −1.56 | Full NPCCSS score (excluding hearing domains), LS mean change from baseline, Arimoclomol vs placebo: Difference ([10]; 12 months, listed as arimoclomol): numerically in favor of arimoclomol | Full NPCCSS score (excluding hearing domains) at 12 months, Mean ([10]; arimoclomol group n=25): 1.2 | Full NPCCSS score (excluding hearing domains) at 12 months, Median ([10]; arimoclomol group n=25): 1.0 | Tolerability ([11]; 12-month placebo-controlled trial): well tolerated | Number of patients with increase in serum creatinine level over 1.5 times baseline ([11]; arimoclomol group): Six | Number of patients with serum creatinine level over twice baseline ([11]; arimoclomol group): two | Patients with serious TEAEs ([11]; arimoclomol group 5/34): 14.7% | Patients with vomiting (most common TEAE) ([11]; arimoclomol group 8/34): 23.5% | Upper respiratory tract infection and decreased weight, frequency versus placebo ([11]; double-blind phase): occurred more frequently | Patients with TEAEs (adverse event incidence) ([11]; double-blind phase, 12 months, arimoclomol group 30/34): 88.2% | Changes in vital signs, electrocardiograms, or other laboratory values ([11]; during the trial): no significant changes | Patients with TEAEs that led to trial drug discontinuation ([11]; three patients, four TEAEs (urticaria x2, angioedema, increased blood creatinine)): 8.8%

CCCCN1C[C@H](O)[C@@H](O)[C@H](O)[C@H]1CO [miglustat, (2R,3R,4R,5 S)-1-butyl-2-(hydroxymethyl)piperidine-3 ,4,5-triol]
Effect on slowing NPC disease progression [12]: only a modest effect on slowing disease progression
